{"source": "patent US20090186929A1", "about": "“Method and agent for inducing apoptosis/cell death in leukemia cells” (U.S. DEPARTMENT OF VETERANS AFFAIRS, priority 2003, published 2009)", "key": {"[1]": {"biological_target": "T1, purified recombinant human NOS2 oxygenase domain (Homo sapiens, UniProt P35228)", "T1 construct": "purified recombinant human NOS2 oxygenase domain", "T1 sequence (P35228 1-504 limits assumed)": "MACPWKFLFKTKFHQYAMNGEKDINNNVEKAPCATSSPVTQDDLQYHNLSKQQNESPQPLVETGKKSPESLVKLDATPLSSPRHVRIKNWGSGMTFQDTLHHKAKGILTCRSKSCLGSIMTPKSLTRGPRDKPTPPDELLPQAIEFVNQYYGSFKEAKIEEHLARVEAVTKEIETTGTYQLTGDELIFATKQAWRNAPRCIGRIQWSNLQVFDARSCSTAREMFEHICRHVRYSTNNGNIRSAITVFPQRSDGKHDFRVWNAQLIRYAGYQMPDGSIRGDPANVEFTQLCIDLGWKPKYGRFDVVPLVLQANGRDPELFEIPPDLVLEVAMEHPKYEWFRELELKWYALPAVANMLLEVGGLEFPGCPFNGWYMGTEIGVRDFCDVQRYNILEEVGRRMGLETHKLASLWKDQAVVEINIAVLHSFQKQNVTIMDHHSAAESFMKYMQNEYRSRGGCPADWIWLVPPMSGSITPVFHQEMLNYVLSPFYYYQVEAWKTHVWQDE", "experiment": "NOS inhibitor binding (Kd) to NOS2", "method": "[…] The cLogP value for each NOS inhibitor was determined using the CLOGP computer program (BioByte, Claremont, Calif.). […] Linear regression was used to examine the correlation between the IC50, Kd and cLogP values and ED50 values.\nWe determined the dissociation constant for NOS inhibitor binding (Kd) to purified recombinant and NOS2."}, "CLL cells [2]": {"system": "CLL cells", "experiment": "Cytotoxicity of NOS inhibitors for CLL cells in vitro (PI exclusion assay)", "format": "cell-based", "details": "Homo sapiens, CLL cell, read-out: Mean ED50 ± S.E.M. (CLL cell cytotoxicity)", "quoted_text": "Toxicity could be detected by disappearance of cells from the culture (reduction in overall cell number), uptake of trypan blue, propidium iodide uptake (flow cytometry), MTS (4,5-dimethylthiazol-2-yl)-5-(3-carboxymethoxyphenyl)-2-(4-sulfophenyl)-2H-tetrazolium, inner salt) assay (cellular respiration), and several parameters of apoptosis [annexin V assay, DNA content (<in), and TUNEL assay]."}, "[3]": {"biological_target": "T2, purified recombinant rat NOS1 oxygenase domain (Rattus norvegicus, UniProt P29476)", "T2 construct": "purified recombinant rat NOS1 oxygenase domain", "T2 sequence (P29476 1-720 limits assumed)": "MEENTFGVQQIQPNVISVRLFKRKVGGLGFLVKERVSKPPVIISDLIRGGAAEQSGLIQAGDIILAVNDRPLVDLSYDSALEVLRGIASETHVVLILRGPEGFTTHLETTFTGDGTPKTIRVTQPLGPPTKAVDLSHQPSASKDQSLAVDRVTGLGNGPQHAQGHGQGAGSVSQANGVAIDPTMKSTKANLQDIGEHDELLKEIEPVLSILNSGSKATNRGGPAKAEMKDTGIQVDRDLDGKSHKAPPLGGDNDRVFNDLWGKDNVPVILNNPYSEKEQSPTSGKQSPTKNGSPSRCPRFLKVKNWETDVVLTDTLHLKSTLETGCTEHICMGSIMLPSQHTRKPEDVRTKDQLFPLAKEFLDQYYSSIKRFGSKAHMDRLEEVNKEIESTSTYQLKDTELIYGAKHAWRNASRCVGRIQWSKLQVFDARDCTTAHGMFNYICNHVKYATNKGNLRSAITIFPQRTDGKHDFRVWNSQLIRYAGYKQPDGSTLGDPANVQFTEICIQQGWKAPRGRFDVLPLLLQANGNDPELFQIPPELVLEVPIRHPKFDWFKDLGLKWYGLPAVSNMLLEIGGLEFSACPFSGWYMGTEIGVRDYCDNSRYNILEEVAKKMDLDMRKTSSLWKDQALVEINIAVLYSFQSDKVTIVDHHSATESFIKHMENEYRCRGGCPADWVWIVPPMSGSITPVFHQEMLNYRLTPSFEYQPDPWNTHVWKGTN", "experiment": "NOS inhibitor binding (Kd) to NOS1"}, "CLL cells [4]": {"system": "CLL cells", "experiment": "Cytotoxicity of NOS inhibitors for CLL cells in vitro (MTS assay)", "details": "cytotoxicity for CLL cells in vitro", "excerpt": "We worked to optimize the culture of CLL cells (Reference 86). […] These were all tested with and without albumin, fetal bovine serum, human serum, glutamine, insulin, transferrin, selenium, and mercaptoethanol.\nToxicity could be detected by disappearance of cells from the culture (reduction in overall cell number), uptake of trypan blue, propidium iodide uptake (flow cytometry), MTS (4,5-dimethylthiazol-2-yl)-5-(3-carboxymethoxyphenyl)-2-(4-sulfophenyl)-2H-tetrazolium, inner salt) assay (cellular respiration), and several parameters of apoptosis [annexin V assay, DNA content […], and TUNEL assay]."}, "[5]": {"details": "normals, trials for septic shock and migraine; cited from earlier work"}, "CLL cells [6]": {"system": "CLL cells", "experiment": "CLL cell apoptosis (TUNEL assay)", "format": "cell-based, human", "details": "CLL cells in vitro", "method": "Culture of cells with IL-4 or IFN-γ (but not TNF-α, IL-2, IL-6, IL-8, G-CSF, nerve growth factor, or IFN-α) increased NO production. By quantitative RT-PCR, IL-4 increased NOS2 mRNA (FIG. 8). Also, 5 of 5 patients' CLL cells had increases in NOS2 protein (immunoblot) after in vitro treatment with IL-4. Apoptosis (TUNEL assay) was induced by NMMA treatment of the cells, and incubating cells with IL-4 or IFN-y reduced apoptosis. […] Since IL-4 and IFN-gamma induce NOS2 and modulate CD38 expression in CLL cells in vitro, we sought to determine if CLL patients had elevated levels of these cytokines and if the levels related to CD38 expression by the leukemia cells (Reference 87)."}}}
{"smiles": "C=CCC(=N)NCCC[C@H](N)C(=O)O", "note": "[Vinyl-L-NIO, N^5-(1-Imino-3-butenyl)-L-ornithine]", "values": [{"measurement": "Kd", "setting": "[1]", "value": 0.5, "unit": "µM"}, {"measurement": "EC50", "setting": "CLL cells [2]", "value": "1190 ± 456", "unit": "µM"}, {"measurement": "Kd", "setting": "[3]", "value": 0.1, "unit": "µM"}]}
{"smiles": "CC(=O)O.CNC(=N)NCCC[C@H](N)C(=O)O", "note": "[L-NMMA, N^G-Monomethyl-L-arginine monoacetate]", "values": [{"measurement": "ED50 ranking, FIG. 10", "setting": "CLL cells [4]", "value": "very high ED50"}, {"measurement": "Effects on cardiovascular, liver, or hematopoietic function", "setting": "[5]", "value": "no major effects"}, {"measurement": "Apoptosis (TUNEL assay)", "setting": "CLL cells [6]", "value": "induced"}]}
